In ChEMBL document CHEMBL3860108, “Substituent Effects on Drug-Receptor H-bond Interactions: Correlations Useful for the Design of Kinase Inhibitors” (J Med Chem, 2016):

Molecular target: T1, Serine/threonine-protein kinase TNNI3K (Homo sapiens, UniProt Q59H18)
T1 sequence (Q59H18 whole entry): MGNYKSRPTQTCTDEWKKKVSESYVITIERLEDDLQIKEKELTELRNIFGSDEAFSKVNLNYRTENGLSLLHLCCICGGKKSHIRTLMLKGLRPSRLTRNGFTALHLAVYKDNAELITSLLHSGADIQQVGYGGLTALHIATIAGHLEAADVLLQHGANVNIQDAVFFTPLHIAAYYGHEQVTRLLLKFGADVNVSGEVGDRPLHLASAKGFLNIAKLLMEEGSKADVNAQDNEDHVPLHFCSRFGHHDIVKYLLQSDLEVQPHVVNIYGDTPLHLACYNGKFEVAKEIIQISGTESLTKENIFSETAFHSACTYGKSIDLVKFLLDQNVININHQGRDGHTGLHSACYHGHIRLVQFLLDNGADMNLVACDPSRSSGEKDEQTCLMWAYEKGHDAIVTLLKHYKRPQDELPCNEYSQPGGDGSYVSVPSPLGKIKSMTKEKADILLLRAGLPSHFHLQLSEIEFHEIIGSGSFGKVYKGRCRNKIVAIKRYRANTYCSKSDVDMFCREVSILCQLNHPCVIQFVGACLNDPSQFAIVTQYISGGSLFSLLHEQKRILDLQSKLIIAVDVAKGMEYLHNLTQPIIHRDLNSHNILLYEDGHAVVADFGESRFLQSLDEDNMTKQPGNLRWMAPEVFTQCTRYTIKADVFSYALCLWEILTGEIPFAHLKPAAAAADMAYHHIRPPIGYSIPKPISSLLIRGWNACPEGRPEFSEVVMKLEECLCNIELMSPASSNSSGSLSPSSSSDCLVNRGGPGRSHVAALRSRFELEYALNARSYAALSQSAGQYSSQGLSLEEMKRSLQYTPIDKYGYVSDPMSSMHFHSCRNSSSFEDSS
Experiment: Displacement of 5-({[2-({[3-({4-[(5-hydroxy-2-methylphenyl)amino]-2-pyrimidinyl}amino)phenyl]carbonyl}amino)-ethyl]amino}carbonyl)-2-(6-hydroxy-3-oxo-3H-xanthen-9-yl)benzoic acid from His6-MBP-TEV-full length human TNNI3K expressed in Baculovirus expression system after 60 mins by fluorescence polarization assay

Row | IC50 | SMILES
1 | 80 nM | CNS(=O)(=O)c1ccc(N(C)C)c(Nc2cc(Nc3ccc(Cl)cc3)ncn2)c1
2 | 1600 nM | CCCNc1ccc(S(=O)(=O)NC)cc1Nc1cc(Nc2ccc(Cl)cc2)ncn1
3 | 25 nM | CNS(=O)(=O)c1ccc(OCC(F)(F)F)c(Nc2cc(Nc3ccc(Cl)cc3)ncn2)c1
4 | 130 nM | CNS(=O)(=O)c1ccc(Cl)c(Nc2cc(Nc3ccc(Cl)cc3)ncn2)c1
5 | 50 nM | CCOc1ccc(S(=O)(=O)NC)cc1Nc1cc(Nc2ccc(Cl)cc2)ncn1
6 | 250 nM | CNS(=O)(=O)c1ccc(N2CCCC2C)c(Nc2cc(Nc3ccc(Cl)cc3)ncn2)c1 (stereo not given)
7 | 40 nM | CNS(=O)(=O)c1ccc(N2CCCC(F)(F)C2)c(Nc2cc(Nc3ccc(Cl)cc3)ncn2)c1
8 | 160 nM | CNS(=O)(=O)c1ccc(C)c(Nc2cc(Nc3ccc(Cl)cc3)ncn2)c1
9 | 160 nM | CNS(=O)(=O)c1ccc(O)c(Nc2cc(Nc3ccc(Cl)cc3)ncn2)c1
10 | 80 nM | CNS(=O)(=O)c1cccc(Nc2cc(Nc3ccc(Cl)cc3)ncn2)c1
11 | 63 nM | CNS(=O)(=O)c1ccc(N2CCC[C@@H]2C(F)(F)F)c(Nc2cc(Nc3ccc(Cl)cc3)ncn2)c1
12 | 800 nM | CNS(=O)(=O)c1ccc(N)c(Nc2cc(Nc3ccc(Cl)cc3)ncn2)c1
13 | 80 nM | CNS(=O)(=O)c1ccc(N2C(C)CCC2C)c(Nc2cc(Nc3ccc(Cl)cc3)ncn2)c1 (stereo not given)
14 | 2500 nM | CNc1ccc(S(=O)(=O)NC)cc1Nc1cc(Nc2ccc(Cl)cc2)ncn1
15 | 1000 nM | CNS(=O)(=O)c1ccc(N2CCC(F)(F)C2)c(Nc2cc(Nc3ccc(Cl)cc3)ncn2)c1
16 | 50 nM | CNS(=O)(=O)c1ccc(OC)c(Nc2cc(Nc3ccc(Cl)cc3)ncn2)c1
17 | 63 nM | CCN(C)c1ccc(S(=O)(=O)NC)cc1Nc1cc(Nc2ccc(Cl)cc2)ncn1
18 | 32 nM | CNS(=O)(=O)c1ccc(OC(F)(F)F)c(Nc2cc(Nc3ccc(Cl)cc3)ncn2)c1
19 | 400 nM | CNS(=O)(=O)c1ccc(SC)c(Nc2cc(Nc3ccc(Cl)cc3)ncn2)c1
20 | 1300 nM | CNS(=O)(=O)c1ccc(N2CCCC2)c(Nc2cc(Nc3ccc(Cl)cc3)ncn2)c1
21 | 200 nM | CNS(=O)(=O)c1ccc(F)c(Nc2cc(Nc3ccc(Cl)cc3)ncn2)c1
22 | 40 nM | CNS(=O)(=O)c1ccc(N(C)CC(F)(F)F)c(Nc2cc(Nc3ccc(Cl)cc3)ncn2)c1
23 | 3200 nM | CCNc1ccc(S(=O)(=O)NC)cc1Nc1cc(Nc2ccc(Cl)cc2)ncn1

Continued, molecule first:

Row | SMILES | IC50
24 | CNS(=O)(=O)c1ccc(OCC(F)(F)F)c(Nc2ncnc3[nH]ccc23)c1 | 16 nM
25 | CNS(=O)(=O)c1ccc(N(C)C)c(Nc2ncnc3[nH]cnc23)c1 | 16 nM
26 | CNS(=O)(=O)c1ccc(N2CCC(F)(F)C2)c(Nc2ncnc3[nH]ccc23)c1 | 130 nM
27 | CNS(=O)(=O)c1ccc(N2CCCCC2)c(Nc2ncnc3[nH]ccc23)c1 | 13 nM
28 | CNS(=O)(=O)c1ccc(N(C)C)c(Nc2ncnc(Nc3ccc(Cl)cc3)n2)c1 | 10 nM
29 | CNS(=O)(=O)c1ccc(N2C(C)CCC2C)c(Nc2ncnc3[nH]ccc23)c1 (stereo not given) | 20 nM
30 | CNS(=O)(=O)c1ccc(O)c(Nc2ncnc3[nH]ccc23)c1 | 40 nM
31 | CNS(=O)(=O)c1ccc(N2CCCC(F)(F)C2)c(Nc2ncnc3[nH]ccc23)c1 | < 10 nM
32 | CNS(=O)(=O)c1ccc(N(C)C)c(Nc2ncnc3[nH]c4ccccc4c23)c1 | 50 nM
33 | CNS(=O)(=O)c1ccc(N(C)C)c(Nc2ncnc3ccc([N+](=O)[O-])cc23)c1 | 2500 nM
34 | CCCNc1ccc(S(=O)(=O)NC)cc1Nc1ncnc2[nH]ccc12 | 2500 nM
35 | CNS(=O)(=O)c1ccc(N2CCCC2C)c(Nc2ncnc3[nH]ccc23)c1 (stereo not given) | 130 nM
36 | CNS(=O)(=O)c1ccc(F)c(Nc2ncnc3[nH]ccc23)c1 | 250 nM
37 | CNS(=O)(=O)c1ccc(-c2ccccc2)c(Nc2ncnc3[nH]ccc23)c1 | 200 nM
38 | CNS(=O)(=O)c1ccc(N(C)C)c(Nc2ncnc3ccc(Cl)cc23)c1 | 400 nM
39 | CNS(=O)(=O)c1ccc(N(C)CC(F)(F)F)c(Nc2ncnc3[nH]ccc23)c1 | 10 nM
40 | CNS(=O)(=O)c1ccc(SC)c(Nc2ncnc3[nH]ccc23)c1 | 130 nM
41 | CCOc1ccc(S(=O)(=O)NC)cc1Nc1ncnc2[nH]ccc12 | 32 nM
42 | CNS(=O)(=O)c1ccc(OC(F)(F)F)c(Nc2ncnc3[nH]ccc23)c1 | 50 nM
43 | CCNc1ccc(S(=O)(=O)NC)cc1Nc1ncnc2[nH]ccc12 | 2500 nM
44 | CCN(C)c1ccc(S(=O)(=O)NC)cc1Nc1ncnc2[nH]ccc12 | 32 nM
45 | CNS(=O)(=O)c1ccc(OC)c(Nc2ncnc3[nH]ccc23)c1 | 100 nM
46 | CNS(=O)(=O)c1ccc(N2CCCC2)c(Nc2ncnc3[nH]ccc23)c1 | 320 nM
47 | CNS(=O)(=O)c1ccc(N(C)C)c(Nc2ncnc3[nH]cc(-c4ccco4)c23)c1 | < 10 nM
48 | CNS(=O)(=O)c1ccc(N(C)C)c(Nc2ncnc3ncccc23)c1 | 5000 nM

Molecular target: Serine/threonine-protein kinase B-raf (Homo sapiens, UniProt P15056, V600E)
Experiment: Inhibition of His6-tagged full length BRAF V600E mutant (2 to 766 residues) (unknown origin) expressed in Baculovirus expression system by BRAMA method

Sequence of Serine/threonine-protein kinase B-raf (P15056 2-766 V600E limits assumed): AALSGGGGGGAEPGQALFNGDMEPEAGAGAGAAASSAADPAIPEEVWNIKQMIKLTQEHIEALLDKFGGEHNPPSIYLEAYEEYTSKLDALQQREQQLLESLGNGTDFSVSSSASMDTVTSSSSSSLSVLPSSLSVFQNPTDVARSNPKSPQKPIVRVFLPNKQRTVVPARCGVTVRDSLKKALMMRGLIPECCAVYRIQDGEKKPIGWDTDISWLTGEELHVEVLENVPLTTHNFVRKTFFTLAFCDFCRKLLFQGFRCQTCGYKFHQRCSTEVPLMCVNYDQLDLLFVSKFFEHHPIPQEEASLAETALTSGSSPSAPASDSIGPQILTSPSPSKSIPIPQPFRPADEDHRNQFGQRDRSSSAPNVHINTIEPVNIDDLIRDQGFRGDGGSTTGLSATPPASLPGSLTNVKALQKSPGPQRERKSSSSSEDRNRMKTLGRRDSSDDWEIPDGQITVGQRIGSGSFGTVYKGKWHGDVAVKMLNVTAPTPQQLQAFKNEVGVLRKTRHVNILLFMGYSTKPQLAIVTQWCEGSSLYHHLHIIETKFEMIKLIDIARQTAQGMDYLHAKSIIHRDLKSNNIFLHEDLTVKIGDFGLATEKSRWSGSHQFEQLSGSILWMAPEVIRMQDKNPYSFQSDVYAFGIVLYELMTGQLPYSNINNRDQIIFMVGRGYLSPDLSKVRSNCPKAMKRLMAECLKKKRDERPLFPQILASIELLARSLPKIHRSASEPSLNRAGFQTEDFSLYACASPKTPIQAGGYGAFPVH

Row | SMILES | IC50
49 | CNS(=O)(=O)c1ccc(N(C)C)c(Nc2ncnc3ccc([N+](=O)[O-])cc23)c1 | 6300 nM
50 | CNS(=O)(=O)c1ccc(N(C)C)c(Nc2ncnc3ccc(Cl)cc23)c1 | 400 nM
